Each structure is given as a SMILES string.

Test [1] deals with T1, Alpha glucosidase (Homo sapiens, UniProt O43451+P10253+P14410+Q2M2H8). The experiment in a line: Inhibition of alpha-glucosidase (unknown origin) using p-nitro phenyl glucopyranoside as substrate preincubated for 10 mins followed by substrate addition measured after 30 mins. The class given is protein assay.
The nature of test [2]: Inhibition of yeast alpha-glucosidase using p-nitrophenyl-alpha-d-glucopyranoside as substrate preincubated for 15 mins followed by substrate addition measured after 20 mins. Further details: species or system Saccharomyces cerevisiae.
Test [3] is described as follows: Inhibition of yeast alpha-glucosidase using p-nitrophenyl-alpha-d-glucopyranoside as substrate preincubated for 15 mins followed by substrate addition measured after 30 mins. Further details: species or system Saccharomyces cerevisiae.
The next test concerns MDA-MB-231. The experiment in a line: Cytotoxicity against human MDA-MB-231 cells assessed as reduction in cell viability at 100 uM relative to control. Particulars: for IC50: Homo sapiens, MDA-MB-231. The class given is functional, cell-based.
Test [4] has as its target T1, Alpha glucosidase. The experiment in a line: Inhibition of alpha-glucosidase (unknown origin) using p-nitrophenyl-alpha-d-glucopyranoside as substrate preincubated for 5 mins followed by substrate addition measured after 30 mins. The class given is protein assay.

For orientation: IC50 means the point on the concentration scale where inhibition reaches its midpoint. The molecule `O=C(N/N=C/c1ccc(O)c(O)c1)c1nc(-c2cc3ccccc3oc2=O)cs1` had an IC50 against Alpha glucosidase [1] of 6.2 to 81 µM.
In test [2], `CN1CCN(c2ccc3[nH]c(-c4ccc(O)cc4)nc3c2)CC1` displayed an IC50 of 2.2 µM.
`O=C(N/N=C/c1ccccc1O)c1nc(-c2cc3ccccc3oc2=O)cs1`: the IC50 at Alpha glucosidase [1] was 6.2 to 81 µM.
`COc1cc(C2C(C#N)=C(N)Oc3n[nH]c(C)c32)ccc1OCc1ccccc1` (centres undefined) showed an IC50 in test [3] of 60 to 180 µM.
Turning to `Cc1ccc(C)c(N2C(=O)/C(=C/c3ccc(F)cc3)S/C2=N\NC(=O)c2cc3ccccc3oc2=O)c1`, the Activity result in the test with MDA-MB-231 is listed as “>=76%”. The IC50 at Alpha glucosidase [4] is > 100 µM.
For `COc1cc(-c2nc3ccc(N4CCN(C)CC4)cc3[nH]2)ccc1O`, in test [2], the IC50 was in the range of 2.2 to 21 µM.
In the case of `Cc1ccc(N2C(=O)/C(=C/c3ccc(F)cc3)S/C2=N\NC(=O)c2cc3ccccc3oc2=O)c(C)c1`, the Activity entry in the test with MDA-MB-231 is recorded as “>=76%”. For the same molecule, the IC50 at Alpha glucosidase [4] lay within 0.09 to 1.6 µM.
In test [2], `CN1CCN(c2ccc3nc(-c4ccc(O)c(O)c4)[nH]c3c2)CC1` registered an IC50 of 2.2 to 21 µM.
`Cc1n[nH]c2c1C(c1ccc([N+](=O)[O-])cc1)C(C#N)=C(N)O2` (centres undefined) gave an IC50 in test [3] of 54 µM.
On Alpha glucosidase [1], `O=C(N/N=C/c1ccc(Cl)cc1)c1nc(-c2cc3ccccc3oc2=O)cs1` yielded an IC50 of 6.2 to 81 µM.
In turn, `Fc1ccc(-c2nc3ccc(N4CCOCC4)cc3[nH]2)cc1Br` returned an IC50 in test [2] of 3.4 to 20 µM.
Same read-out and setting: the result for `Clc1ccc(-c2nc3ccc(N4CCOCC4)cc3[nH]2)cc1` reads 3.4 to 20 µM.
`CN1CCN(c2ccc3nc(-c4ccccn4)[nH]c3c2)CC1` registered an IC50 in test [2] of 2.2 to 21 µM.
As to `COc1ccc(N2C(=O)/C(=C/c3ccc(F)cc3)S/C2=N\NC(=O)c2cc3ccccc3oc2=O)cc1`, the Activity entry with MDA-MB-231 is listed as “>=76%”. In addition, the IC50 against Alpha glucosidase [4] lay within 0.09 to 1.6 µM.
With `CC(C)(C)c1cc(/C=N/NC(=O)c2nc(-c3cc4ccccc4oc3=O)cs2)c(O)c(C(C)(C)C)c1`, the IC50 on Alpha glucosidase [1] was in the range of 6.2 to 81 µM.
With `CN1CCN(c2ccc3nc(-c4ccc(N(C)C)cc4)[nH]c3c2)CC1`, the IC50 in test [2] lay within 2.2 to 21 µM.
Same read-out and setting: the value for `CN1CCN(c2ccc3nc(-c4ccc(F)c(Br)c4)[nH]c3c2)CC1` was 2.2 to 21 µM.
Consider `Cc1ccc(N2C(=O)/C(=C/c3ccc(F)cc3)S/C2=N\NC(=O)c2cc3ccccc3oc2=O)cc1C`, for which the IC50 in the test with MDA-MB-231 and against Alpha glucosidase [4] was 0.09 to 1.6 µM throughout.
As to `COc1cccc(N2C(=O)/C(=C/c3ccc(F)cc3)S/C2=N\NC(=O)c2cc3ccccc3oc2=O)c1`, in the test with MDA-MB-231, the Activity result is recorded as “>=76%”. Moreover, the IC50 at Alpha glucosidase [4] was in the range of 0.09 to 1.6 µM.
At Alpha glucosidase [1], `COc1ccc(/C=N/NC(=O)c2nc(-c3cc4ccccc4oc3=O)cs2)cc1` gave an IC50 of 6.2 to 81 µM.
As to `Cc1[nH]nc2c1C(c1ccc(O)c(OCc3ccccc3)c1)C(C#N)=C(N)O2` (centres undefined), the IC50 in test [3] lay within 60 to 180 µM.
As to `c1ccc(-c2nc3ccc(N4CCOCC4)cc3[nH]2)nc1`, in test [2], the concentration for half-maximal inhibition (IC50) was in the range of 3.4 to 20 µM.
As to `O=C(N/N=C1\S/C(=C\c2ccc(F)cc2)C(=O)N1c1ccccc1Cl)c1cc2ccccc2oc1=O`, the IC50 in the test on MDA-MB-231 and against Alpha glucosidase [4] was 0.09 to 1.6 µM throughout.
Take `O=C(N/N=C/c1ccc(C(F)(F)F)cc1)c1nc(-c2cc3ccccc3oc2=O)cs1`: the IC50 at Alpha glucosidase [1] fell in the range of 6.2 to 81 µM.
`O=C(N/N=C/c1cccc(F)c1)c1nc(-c2cc3ccccc3oc2=O)cs1` showed an IC50 at Alpha glucosidase [1] of 6.2 to 81 µM.
Still for that read-out and setting: the result for `O=C(N/N=C/c1ccccc1F)c1nc(-c2cc3ccccc3oc2=O)cs1` reads 6.2 to 81 µM.
Consider `CN1CCN(c2ccc3nc(-c4ccc(Cl)cc4)[nH]c3c2)CC1`, for which the IC50 in test [2] fell in the range of 2.2 to 21 µM.
On the same count and under the same terms, the value for `Oc1ccc(-c2nc3ccc(N4CCOCC4)cc3[nH]2)cc1O` was 3.4 to 20 µM.
The same measure, in the same setting: the value for `NNC(=O)Cn1c(Cc2ccc(Cl)cc2Cl)nc2ccc([N+](=O)[O-])cc21` was 10 µM.
On Alpha glucosidase [1], `O=C(N/N=C/c1ccc(O)c(F)c1)c1nc(-c2cc3ccccc3oc2=O)cs1` registered an IC50 of 6.2 to 81 µM.
Take `Cc1cccc(C)c1N1C(=O)/C(=C/c2ccc(F)cc2)S/C1=N\NC(=O)c1cc2ccccc2oc1=O`: the Activity result in the test on MDA-MB-231 is given as “>=76%”. At Alpha glucosidase [4], this molecule registered an IC50 of 0.09 to 1.6 µM.
As for `O=C(N/N=C1\S/C(=C\c2ccc(F)cc2)C(=O)N1c1ccc(Cl)cc1)c1cc2ccccc2oc1=O`, the Activity result in the test with MDA-MB-231 is “>=76%”. Moreover, the IC50 against Alpha glucosidase [4] was in the range of 0.09 to 1.6 µM.
The like results for `Cc1cccc(N2C(=O)/C(=C/c3ccc(F)cc3)S/C2=N\NC(=O)c2cc3ccccc3oc2=O)c1C` were, in that order, “>=76%” and > 100 µM.
The like results for `O=C(N/N=C1\S/C(=C\c2ccc(F)cc2)C(=O)N1c1cccc(Cl)c1)c1cc2ccccc2oc1=O` were, in that order, “>=76%” and > 100 µM.
`Cc1ncc([N+](=O)[O-])n1Cn1cc(Cn2c3ccccc3c3ccccc32)nn1`: in test [3], the IC50 came to 6.8 µM.
On the same count and under the same terms, the value for `O=C(c1ccc(O)cc1)C1Cc2c(ccc3ccccc23)O1` (centres undefined) was 6.5 µM; that for `C[C@H]1O[C@H](O[C@H]2[C@H](O)[C@@H](O)[C@@H](O[C@H]3[C@H](O)[C@@H](O)C(O)O[C@@H]3CO)O[C@@H]2CO)[C@H](O)[C@@H](O)[C@@H]1N[C@H]1C=C(CO)[C@@H](O)[C@H](O)[C@H]1O` (some centres undefined) [ACARBOSE] was 937 µM.
Regarding `Cc1ccccc1N1C(=O)/C(=C/c2ccc(F)cc2)S/C1=N\NC(=O)c1cc2ccccc2oc1=O`, the Activity result with MDA-MB-231 was “>=76%”. On Alpha glucosidase [4], this molecule gave an IC50 of 0.09 to 1.6 µM.
The like results for `Cc1ccc(N2C(=O)/C(=C/c3ccc(F)cc3)S/C2=N\NC(=O)c2cc3ccccc3oc2=O)cc1` were, in that order, “>=76%” and 0.09 to 1.6 µM.
The like results for `Cc1cccc(N2C(=O)/C(=C/c3ccc(F)cc3)S/C2=N\NC(=O)c2cc3ccccc3oc2=O)c1` were, in that order, “>=76%” and 0.09 to 1.6 µM.
Regarding `O=C(N/N=C/c1ccc(O)cc1)c1nc(-c2cc3ccccc3oc2=O)cs1`, the IC50 at Alpha glucosidase [1] was in the range of 6.2 to 81 µM.
Consider `CC[C@]1(O)C[C@H]2CN(CCc3c([nH]c4ccccc34)[C@@](C(=O)OC)(c3cc4c(cc3OC)N(C=O)[C@H]3[C@@](O)(C(=O)OC)[C@H](OC(C)=O)[C@]5(CC)C=CCN6CC[C@]43[C@@H]65)C2)C1` [VINCRISTINE], for which the Activity in the test on MDA-MB-231 was found to be 74.5%.
For the molecule `c1ccc2c(c1)c1ccccc1n2Cc1cn(Cc2ccc(Cn3cc(Cn4c5ccccc5c5ccccc54)nn3)cc2)nn1`, the IC50 in test [3] turned out to be 3.6 µM.
The same measure, in the same setting: the value for `O=C(Cn1cc(Cn2c3ccccc3c3ccccc32)nn1)c1ccc(O)c(Br)c1` was 0.61 to 1 µM; that for `c1ccc2c(c1)c1ccccc1n2Cc1cn(Cc2ccc(-c3ccc(Cn4cc(Cn5c6ccccc6c6ccccc65)nn4)cc3)cc2)nn1` was 73 µM.
`COc1ccccc1/C=N/NC(=O)c1nc(-c2cc3ccccc3oc2=O)cs1` displayed an IC50 against Alpha glucosidase [1] of 6.2 to 81 µM.
With `COc1ccccc1N1C(=O)/C(=C/c2ccc(F)cc2)S/C1=N\NC(=O)c1cc2ccccc2oc1=O`, the Activity in the test on MDA-MB-231 is 72.8%. On Alpha glucosidase [4], this molecule registered an IC50 of 0.09 µM.
As for `Cc1cc(C)cc(N2C(=O)/C(=C/c3ccc(F)cc3)S/C2=N\NC(=O)c2cc3ccccc3oc2=O)c1`, the IC50 in the test with MDA-MB-231 and on Alpha glucosidase [4] was 0.09 to 1.6 µM throughout.
Regarding `CN(C)c1ccc(-c2nc3ccc(N4CCOCC4)cc3[nH]2)cc1`, the IC50 in test [2] lay in the range of 3.4 to 20 µM.
Still for that read-out and setting: the value for `COc1cc(-c2nc3ccc(N4CCOCC4)cc3[nH]2)ccc1O` was 3.4 to 20 µM.
The molecule `O=C(N/N=C/c1cccc(Cl)c1)c1nc(-c2cc3ccccc3oc2=O)cs1` gave an IC50 against Alpha glucosidase [1] of 6.2 to 81 µM.
The molecule `O=C(N/N=C/c1cccc(Br)c1)c1nc(-c2cc3ccccc3oc2=O)cs1` registered an IC50 at Alpha glucosidase [1] of 6.2 to 81 µM.
The same measure, in the same setting: the value for `COc1ccc(/C=N/NC(=O)c2nc(-c3cc4ccccc4oc3=O)cs2)c(O)c1` was 6.2 to 81 µM; that for `O=C(N/N=C/c1cc(Cl)ccc1O)c1nc(-c2cc3ccccc3oc2=O)cs1` was 6.2 to 81 µM.
